Source: publication PMC5026937 (Antiviral research, 2016)

Tested on: A/Switzerland/9715293/2013 (H3N2)
Type: cell-based, Influenza A virus

CCC(CC)O[C@@H]1C=C(C(=O)O)C[C@H](N)[C@H]1NC(C)=O [Oseltamivir carboxylate, oseltamivir carboxylate]
EC50 increase on serial passage: more than ten-fold
